Literature values in patent US20120258972A1, “Composition and Methods for Treating Hair Loss” (priority 2011, published 2012).

What was measured:
[1] = system: men with androgenic alopecia; conditions: ketoconazole shampoo 2% versus 2% minoxidil regimen
[2] = system: C.3H/HeN mice; conditions: topical application
[3] = system: serum dihydrotestosterone; conditions: oral
[4] = target: T1, type I isozyme of 5-alpha reductase (Homo sapiens, UniProt P18405)
T1 sequence (P18405 1-259): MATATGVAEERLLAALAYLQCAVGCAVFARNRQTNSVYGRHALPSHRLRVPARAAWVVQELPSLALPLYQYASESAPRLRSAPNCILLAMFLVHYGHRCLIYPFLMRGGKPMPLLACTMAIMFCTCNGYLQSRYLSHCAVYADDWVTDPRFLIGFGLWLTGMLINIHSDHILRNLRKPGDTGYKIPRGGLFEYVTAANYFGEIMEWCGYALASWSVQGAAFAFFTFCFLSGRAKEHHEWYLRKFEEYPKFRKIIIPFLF

[5] = system: male pattern hair loss; conditions: oral dutasteride 0.5 mg and 2.5 mg/day; 12 and 24 weeks
[6] = target: T2, Type II isozyme of 5-alpha reductase (Homo sapiens, UniProt P31213)
T2 sequence (P31213 1-254): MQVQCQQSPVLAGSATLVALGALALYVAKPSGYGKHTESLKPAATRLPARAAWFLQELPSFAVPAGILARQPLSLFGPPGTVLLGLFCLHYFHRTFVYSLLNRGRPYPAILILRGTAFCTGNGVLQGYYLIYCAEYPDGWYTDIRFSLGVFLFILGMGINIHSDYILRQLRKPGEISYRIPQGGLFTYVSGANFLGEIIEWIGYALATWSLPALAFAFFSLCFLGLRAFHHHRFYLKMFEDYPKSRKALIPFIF

Row | Structure (SMILES) | Hair density, size, and proportion of anagen follicles [1] | Effect on hair growth in mice [2] | Decrease of serum dihydrotestosterone [3] | Potency relative to finasteride at inhibiting the type I isozyme of 5-alpha reductase [4] | Hair count compared with 5 mg/day finasteride [5] | Potency relative to finasteride at inhibiting the Type II isozyme of 5-alpha reductase [6] [times]
1 | CC(=O)N1CCN(c2ccc(OCC3COC(Cn4ccnc4)(c4ccc(Cl)cc4Cl)O3)cc2)CC1 (stereo not shown) [ketoconazole] | improved almost similarly | stimulatory effect on hair growth |  |  |  | 
2 | C[C@]12C=CC(=O)N[C@@H]1CC[C@@H]1[C@@H]2CC[C@]2(C)[C@@H](C(=O)Nc3cc(C(F)(F)F)ccc3C(F)(F)F)CC[C@@H]12 [dutasteride] |  |  | up to 90% | more than 100 times | superior hair count | 3
3 | CC(C)(C)NC(=O)[C@H]1CC[C@H]2[C@@H]3CC[C@H]4NC(=O)C=C[C@]4(C)[C@H]3CC[C@]12C [finasteride] |  |  | about 70% |  |  | 
